Tests used:
[1] = tested on: mouse peritoneal mast cells; assay: Mouse peritoneal mast cell histamine release assay; format: cell-based; conditions: 5 minutes, room temperature; HTRF histamine assay
[2] = Drug preparation and storage: stability of solutions; format: physicochemical; conditions: solutions prepared on the day of the experiment
MrgprB2 = target: T1, MrgprB2 (Mus musculus, UniProt Q3KNA1); assay: Calcium imaging in HEK293 cells expressing MrgprB2; format: cell-based; conditions: HEK293 cells heterologously expressing MrgprB2
T1 sequence (Q3KNA1 1-338): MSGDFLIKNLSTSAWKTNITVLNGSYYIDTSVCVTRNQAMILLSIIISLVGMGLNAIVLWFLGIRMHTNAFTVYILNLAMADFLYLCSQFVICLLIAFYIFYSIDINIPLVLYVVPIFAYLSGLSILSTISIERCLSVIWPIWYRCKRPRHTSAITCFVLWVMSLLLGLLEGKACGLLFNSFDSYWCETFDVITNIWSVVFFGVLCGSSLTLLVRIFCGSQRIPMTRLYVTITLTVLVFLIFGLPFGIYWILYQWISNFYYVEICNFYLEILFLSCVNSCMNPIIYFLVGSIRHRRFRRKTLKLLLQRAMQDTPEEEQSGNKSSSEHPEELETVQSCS

## COc1ccc(CC2c3cc(OC)c(OC)cc3CC[N+]2(C)CCC(=O)OCCCCCOC(=O)CC[N+]2(C)CCc3cc(OC)c(OC)cc3C2Cc2ccc(OC)c(OC)c2)cc1OC (stereo not shown) [Atracurium, atracurium]
[1]
  histamine release from WT peritoneal mast cells (MrgprB2MUT mast cells released substantially less): induced histamine release
[2]
  stability of potency of drug solutions: susceptible to oxidation and/or freeze-thaw effects

## CCN(CC)CCCC(C)Nc1ccnc2cc(Cl)ccc12 (stereo not shown) [CQ, chloroquine]
MrgprB2
  response of MrgprB2-HEK cells ([Ca2+]i): no response

## O=C(O)c1cn(C2CC2)c2cc(N3CCNCC3)c(F)cc2c1=O [Ciprofloxacin, ciprofloxacin]
[1]
  histamine release from WT peritoneal mast cells (MrgprB2MUT mast cells released substantially less): induced histamine release

## COc1cc2c(cc1OC)[C@@H](Cc1cc(OC)c(OC)c(OC)c1)[N+](C)(CCCOC(=O)CC/C=C/CCC(=O)OCCC[N+]1(C)CCc3cc(OC)c(OC)cc3[C@H]1Cc1cc(OC)c(OC)c(OC)c1)CC2 (stereo partly shown) [mivacurium]
[2]
  stability of potency of drug solutions: susceptible to oxidation and/or freeze-thaw effects

## COc1cc2c3cc1Oc1cc(ccc1O)C[C@@H]1c4c(cc(OC)c(O)c4Oc4ccc(cc4)C[C@@H]3N(C)CC2)CC[N+]1(C)C [tubocurarine]
[2]
  stability of potency of drug solutions: susceptible to oxidation and/or freeze-thaw effects

## icatibant
[1]
  histamine release from WT peritoneal mast cells (MrgprB2MUT mast cells released substantially less): induced histamine release

Reference: article PMC4359082 (Nature, 2014)
